Each block holds one compound with its values, some of them ahead of it.
Legend:
[1] = system: Ca^2+-permeable AMPARs in CGNH-89 cells; experiment: AMPA-induced [Ca2+]i changes (fura-2 AM) in CGNH-89 cells after adenoviral gene transfer; type: cell-based, human; settings: 200 μM AMPA + 100 μM CTZ
Procedure: In FIGS. 3p˜x, the present inventors confirmed changes in Ca^2+ permeability induced by adenoviral-mediated introduction of GluR2 (R) or GluR2 (Q) in CGNH-89 cells. […] The same treatment had no effect on [Ca^2+]i in cells expressing GluR2 (FIGS. 3s, t and u) in 4 culture dishes, whereas it caused a marked increase in [Ca^2+]i from 77±21 to 1185±240 nM (n=40) in cells expressing GluR2 (Q) in 2 culture dishes (FIGS. 3v, w and x).
(2) AxCANCre and AxCAGFP: recombinant adenoviruses for expression of Cre recombinase and EGFP (Clontech), respectively. Cells were infected at a multiplicity of infection (MOI) of 5 with each of the recombinant adenoviruses 2˜5 days before experiments.
(§1) Cells were loaded with fura 2-AM (Dojin) at room temperature for 40 min. Fluorescence images were obtained at an excitation wavelength of 340 and 380 nm using the Argus/HiSCA system (Hamamatsu Photonics). The 340/380 nm fluorescence ratio was converted to [Ca^2+]i as described previously (Cell, 88, 49-55, 1997).

CGNH-89 cells [2] = experiment: ATP-induced [Ca2+]i increase in CGNH-89 cells; type: cell-based, human; settings: 25 μM ATP; control cells, n=50
Procedure: The present inventors examined whether CGNH-89 cells expressing GluR2 (R) could increase [Ca^2+]i to a similar extent as control cells in response to ATP, which is known to mediate Ca^2+ signaling in glial cells (J. Neurosci., 18, 8794-8804, 1998).
as §1

[3] = molecular target: T1, Ca^2+-permeable AMPARs in glioblastoma cells in primary culture (Homo sapiens, UniProt P42261); experiment: AMPA-induced [Ca2+]i changes (fura-2 AM) in primary cultured glioblastoma cells; type: cell-based
T1 construct: To examine functional expression of Ca^2+-permeable AMPARs in glioblastoma cells in primary culture; endogenous in cells; host or cells: primary (explant) cultures of glioblastoma multiforme surgical samples
Procedure: as §1

CGNH-89 cells [4] = experiment: Cell morphology of CGNH-89 glioblastoma cells; type: cell-based, human
[5] = system: tumor produced by grafting CGNH-89 cells into the subcutaneous tissue; experiment: Subcutaneous CGNH-89 tumor growth in nude mice; type: in vivo
From the text: To further estimate quantitatively whether manipulation of Ca^2+-permeable AMPARs alters tumor growth in vivo, the present inventors examined effects of GluR2 and GluR2 (Q) expression and/or application of the AMPAR antagonist YM872 on the growth of tumor produced by grafting CGNH-89 cells into the subcutaneous tissue of nude mice (FIG. 6)-(FIGS. 6a and b).
Proliferation of tumor cells expressing GluR2 (Q) was inhibited by application of YM872 (FIGS. 6g, h and i).
In addition, the effect of adenoviral-mediated expression of GluR2 (R) and GluR2 (Q) on tumor growth was evaluated quantitatively in subcutaneous tumors with or without application of YM872, an antagonist for AMPA-type glutamate receptors. Cell suspensions (1×10^7/100 μl) were injected subcutaneously in the flank of nude mice 5˜6 weeks old (body weight, 18˜20 g). Adenoviruses ([…], diluted in a total of 100 μl of PBS) were administered intratumorally once 5 days after tumor inoculation with a 27-gauge needle. AxCALNLGluR2 without AxCANCre was administered for control.
YM872, a kind gift from Yamanouchi Pharmaceutical Company, was dissolved in PBS. […] In this series of experiments, 100 mg/kg YM872 was used. PBS (100 μl) was administered intraperitoneally for control. Tumor volume was calculated according to the formula (length×width^2 )/2. At the end of each experiment, tumor tissues were subjected to histological analysis.

[6] = system: CGNH-NM, MRCH-92 and U87 MG; experiment: Other 3 cell lines expressing Ca2+-permeable AMPARs: morphology, apoptotic index, Ki-67 index, migration; type: cell-based, human
CGNH-89 cells [7] = experiment: TUNEL apoptotic index in CGNH-89 cells; type: cell-based, human; settings: 10 μM YM872, 2 days, n=4
From the text: The present inventors next estimated the apoptotic index in CGNH-89 cells expressing GluR2 (R) using the terminal deoxynucleotide transferase (TdT)-mediated dUTP nick end labeling (TUNEL) method (Science, 267, 1445-1449, 1995), and compared this value with that in cells infected with only AxCALNLGluR2 (control). The apoptotic index was defined as the number of TUNEL-positive cells divided by the total number of propidium iodine (PI)-positive nuclei per microscopic field. To obtain the mean value in each culture dish, 10 to 15 randomly chosen fields were sampled.
(§2) For TUNEL and cell proliferation assays, cells were plated at a density of 2×10^4/well in Lab-Tek 4-well glass slides filled with the standard culture medium. At 6 hr. after plating, the medium was replaced with glutamate-free medium and cells were infected with the adenoviruses. At 48 hr. after plating, glutamate (100 μM) was added to the medium and cells were fixed at 5 days postinfection. TUNEL assay was performed with an In Situ Cell Death Detection kit (MBL). Cell proliferation assay was performed with anti-Ki-67 monoclonal antibody (Dako) staining indices. Migration assay was performed in a transwell chamber (8 μm pore size) (Corning Corstar Corp.).

CGNH-89 cells [8] = experiment: Ki-67 staining index (proliferation activity) in CGNH-89 cells; type: cell-based, human; settings: 10 μM YM872, 2 days, n=4
Procedure: There were no significant changes in these 2 indices between cells expressing GluR2 (Q) and overexpressing GluR1.
as §2, with “At 48 hr. after plating, glutamate (100 μM) was added to the medium and cells were fixed at 5 days postinfection.” left out

tumor cells = experiment: Tumor cells cultured in glutamate-free medium, glutamate add-back; type: cell-based, human; settings: addition of 100 ˜M glutamate after 4˜5 days in glutamate-free medium with 10% dialyzed FCS
Procedure: The endogenous agonist for AMPARs is glutamate. The culture medium in this experiment was supplemented with fetal calf serum (FCS) and contained up to 100 μM glutamate. The presence of glutamate was essential for maintenance of fusiform morphology as well as proliferation of the tumor cells. When the cells were cultured in glutamate-free medium supplemented with 10% dialyzed FCS for 4˜5 days, they became polygonal in shape and the number of apoptotic cells increased. These changes were restored by addition of 100 ˜M glutamate. An obvious question is whether a sufficient concentration of glutamate to activate Ca^2+-permeable AMPARs is actually supplied to proliferating and migrating tumor cells in the brain. It has been shown that implanted glioma cells continue to secrete glutamate, resulting in a detectable elevation of extracellular glutamate, and that gliomas with high glutamate release have a distinct growth advantage (Nature Med., 7, 1010-1015, 2001).

[9] = 22 days after tumor inoculation
[10] = other 3 cell lines (CGNH-NM, MRCH-92, U87 MG)

T1 sequence (P42261 19-906): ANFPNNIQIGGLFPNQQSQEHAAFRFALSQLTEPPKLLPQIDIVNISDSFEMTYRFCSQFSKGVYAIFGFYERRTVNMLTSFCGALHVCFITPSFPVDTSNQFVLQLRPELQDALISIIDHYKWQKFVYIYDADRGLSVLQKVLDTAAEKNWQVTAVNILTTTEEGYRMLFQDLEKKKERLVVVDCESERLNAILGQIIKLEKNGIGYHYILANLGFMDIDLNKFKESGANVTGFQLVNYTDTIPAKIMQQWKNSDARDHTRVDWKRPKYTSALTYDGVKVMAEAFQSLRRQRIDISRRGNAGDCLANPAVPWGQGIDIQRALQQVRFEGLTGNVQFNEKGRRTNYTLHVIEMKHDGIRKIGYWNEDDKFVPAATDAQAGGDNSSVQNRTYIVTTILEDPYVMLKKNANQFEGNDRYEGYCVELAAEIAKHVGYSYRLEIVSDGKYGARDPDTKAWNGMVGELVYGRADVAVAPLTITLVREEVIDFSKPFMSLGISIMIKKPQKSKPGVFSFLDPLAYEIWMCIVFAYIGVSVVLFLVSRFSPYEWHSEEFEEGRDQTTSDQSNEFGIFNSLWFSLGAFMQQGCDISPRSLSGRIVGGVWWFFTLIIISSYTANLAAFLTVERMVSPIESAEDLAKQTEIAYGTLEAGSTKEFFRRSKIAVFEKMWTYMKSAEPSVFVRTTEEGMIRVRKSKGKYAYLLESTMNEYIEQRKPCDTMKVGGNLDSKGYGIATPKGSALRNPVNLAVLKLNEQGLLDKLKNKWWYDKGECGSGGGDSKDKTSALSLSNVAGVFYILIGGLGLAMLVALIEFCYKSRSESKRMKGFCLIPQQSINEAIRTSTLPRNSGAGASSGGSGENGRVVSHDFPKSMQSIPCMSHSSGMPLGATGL

Compound: Cc1onc(O)c1CC(N)C(=O)O (stereo not drawn) [AMPA, α-amino-3-hydroxy-5-methyl-4-isoxazole propionic acid]
control cells in which [Ca^2+]i increased ([1]; 10 culture dishes): 52±14%
[Ca^2+]i during application of AMPA together with CTZ ([1]; control CGNH-89 cells, n=350): 275 ± 50 nM

Compound: Nc1ncnc2c1ncn2[C@@H]1O[C@H](COP(=O)(O)OP(=O)(O)OP(=O)(O)O)[C@@H](O)[C@H]1O [ATP]
[Ca^2+]i after application of ATP (CGNH-89 cells [2]): 1574 ± 161 nM

effect on [Ca^2+]i ([3]; 100 mM K^+): did not increase
Compound: [K+] [K^+]

Compound: NS(=O)(=O)c1cccc2c1c([N+](=O)[O-])cc1nc(O)c(O)nc12 [NBQX, 2,3-dihydroxy-6-nitro-7-sulfamoyl-benzo(F)-quinoxaline]
change in cell morphology (CGNH-89 cells [4]; 20 μM NBQX for 2 days): retraction of cytoplasmic processes, enlarged and flattened somata

Compound: O.O=C(O)Cn1c(=O)c(=O)[nH]c2cc([N+](=O)[O-])c(-n3ccnc3)cc21 [YM872, [2,3-dioxo-7-(1H-imidazol-1-yl)-6-nitro-1,2,3,4-tetrahydroquinoxalin-1-yl]acetic acid monohydrate]
apoptotic cells in tumor tissues (histology) [5, 9]: a large number of apoptotic cells
mitotic cells in tumor tissues (histology) [5, 9]: scarcely detected
further effect on tumor expressing GulR2 ([5]; YM872 intraperitoneal, 100 mg/kg): no further inhibitory effects
size of tumor ([5]; YM872 intraperitoneal, 100 mg/kg daily, vs PBS, n=12): significantly reduced
growth of tumor expressing GluR2 (Q) ([5]; YM872 intraperitoneal, 100 mg/kg, n=12): inhibited
proliferation of tumor cells expressing GluR2 (Q) (histology) ([5]; application of YM872): inhibited
inhibition of tumor growth, dose dependence ([5]; daily intraperitoneal 10, 50 and 100 mg/kg for 2 weeks): Dose-dependent inhibition
tumor proliferation in cells expressing GluR2 (histology) ([5]; treatment with YM872): no further inhibition
Ki-67 staining index [6, 10]: decreased
apoptotic index [6, 10]: increased
cell migration ([6]; other 3 cell lines expressing Ca^2+-permeable AMPARs): inhibited the cell migration
apoptotic index (CGNH-89 cells [7]): 18.0±2.5%
effect on AMPA-induced increase in [Ca^2+]i ([3]; 10 μM YM872): selectively abolished
change in cell morphology (CGNH-89 cells [4]; 10 μM YM872 for 2 days): retraction of cytoplasmic processes, enlarged and flattened somata
Ki-67 staining index (CGNH-89 cells [8]): < 0.1%

Compound: N[C@@H](CCC(=O)O)C(=O)O [glutamate]
polygonal shape and increased apoptotic cells caused by glutamate-free medium (tumor cells): restored

— US20060128645A1, “Inhibition of proliferation and infiltration of brain tumor cells caused by expression of ampa-type glutamate receptor subunit” (priority 2002, published 2006)
